Laboratory results: ChEMBL document CHEMBL3885881, “DrugMatrix”

Species on record: Rattus norvegicus
Assay: DrugMatrix - Regimen: Daily Repeat
Format: toxicity, organism-based, Sprague-Dawley
Parameters: regimen Daily Repeat, gender Male, age 6-8 weeks
Details: in vivo, po, route oral GAVAGE, vehicle .5 % CMC; for ABSOLUTE BASOPHIL / ABSOLUTE EOSINOPHIL / ABSOLUTE LYMPHOCYTE / ABSOLUTE MONOCYTE / ABSOLUTE SEGMENTED NEUTROPHIL / BASOPHIL / EOSINOPHIL / ERYTHROCYTE COUNT / HEMATOCRIT / HEMOGLOBIN / LEUKOCYTE COUNT / LYMPHOCYTE / MEAN CORPUSCULAR HEMOGLOBIN / MEAN CORPUSCULAR HEMOGLOBIN CONCENTRATION / MEAN CORPUSCULAR VOLUME / MONOCYTE / NEUTROPHIL / NUCLEATED RED BLOOD CELLS / PLATELET COUNT: tissue Blood; for ALANINE AMINOTRANSFERASE / ALBUMIN / ALKALINE PHOSPHATASE / ASPARTATE AMINOTRANSFERASE / BLOOD UREA NITROGEN / CARBON DIOXIDE / CHLORIDE / CHOLESTEROL / CREATINE PHOSPHOKINASE / CREATININE / GLUCOSE / LACTATE DEHYDROGENASE / LIPASE / PHOSPHORUS / POTASSIUM / SODIUM / TOTAL BILIRUBIN / TOTAL PROTEIN / URIC ACID: tissue Plasma
[1] = 16 mg/kg, 120 h, dose level Low, time 5 day
[2] = 94 mg/kg, 72 h, dose level High, time 3 day
[3] = 94 mg/kg, 120 h, dose level High, time 5 day

## CCOC(=O)OC(C)OC1=C(C(=O)Nc2ccccn2)N(C)S(=O)(=O)c2ccccc21 (centres undefined) [AMPIROXICAM]
[1]
  ABSOLUTE BASOPHIL: 0 CELLS/uL
  ABSOLUTE EOSINOPHIL: 0 CELLS/uL
  ABSOLUTE LYMPHOCYTE: 8819 CELLS/uL
  ABSOLUTE MONOCYTE: 212 CELLS/uL
  ABSOLUTE SEGMENTED NEUTROPHIL: 1469 CELLS/uL
  BASOPHIL: 0%
  EOSINOPHIL: 0%
  ERYTHROCYTE COUNT: 5.59 x10E6/uL
  HEMATOCRIT: 33.9%
  HEMOGLOBIN: 12.8 G/DL
  LEUKOCYTE COUNT: 10.5 x10E3/uL
  LYMPHOCYTE: 84%
  MEAN CORPUSCULAR HEMOGLOBIN: 22.9 pg
  MEAN CORPUSCULAR HEMOGLOBIN CONCENTRATION: 37.77 G/DL
  MEAN CORPUSCULAR VOLUME: 60.67 fL
  MONOCYTE: 2.33%
  NEUTROPHIL: 13.67%
  NUCLEATED RED BLOOD CELLS: 0 /100WBC
  PLATELET COUNT: 1100 x10E3/uL
  ALANINE AMINOTRANSFERASE: 50.33 u/L
  ALBUMIN: 4.2 G/DL
  ALKALINE PHOSPHATASE: 430.67 u/L
  ASPARTATE AMINOTRANSFERASE: 70.67 u/L
  BLOOD UREA NITROGEN: 13.67 mg/dL
  CARBON DIOXIDE: 26 mmol/L
  CHLORIDE: 101.67 MEQ/L
  CHOLESTEROL: 67.67 mg/dL
  CREATINE PHOSPHOKINASE: 214.67 u/L
  CREATININE: 0.26 mg/dL
  GLUCOSE: 161.33 mg/dL
  LACTATE DEHYDROGENASE: 71.67 u/L
  LIPASE: 8.67 u/L
  PHOSPHORUS: 11.93 mg/dL
  POTASSIUM: 6.36 MEQ/L
  SODIUM: 144.83 MEQ/L
  TOTAL BILIRUBIN: 0.17 mg/dL
  TOTAL PROTEIN: 6.1 G/DL
  URIC ACID: 1.73 mg/dL
[2]
  ABSOLUTE BASOPHIL: 0 CELLS/uL
  ABSOLUTE EOSINOPHIL: 73 CELLS/uL
  ABSOLUTE LYMPHOCYTE: 14276.67 CELLS/uL
  ABSOLUTE MONOCYTE: 831.33 CELLS/uL
  ABSOLUTE SEGMENTED NEUTROPHIL: 1685.67 CELLS/uL
  BASOPHIL: 0%
  EOSINOPHIL: 0.33%
  ERYTHROCYTE COUNT: 4.7 x10E6/uL
  HEMATOCRIT: 28.03%
  HEMOGLOBIN: 11.03 G/DL
  LEUKOCYTE COUNT: 16.87 x10E3/uL
  LYMPHOCYTE: 85.33%
  MEAN CORPUSCULAR HEMOGLOBIN: 23.5 pg
  MEAN CORPUSCULAR HEMOGLOBIN CONCENTRATION: 39.33 G/DL
  MEAN CORPUSCULAR VOLUME: 59.67 fL
  MONOCYTE: 5%
  NEUTROPHIL: 9.33%
  NUCLEATED RED BLOOD CELLS: 0 /100WBC
  PLATELET COUNT: 907 x10E3/uL
  ALANINE AMINOTRANSFERASE: 30 u/L
  ALBUMIN: 2.33 G/DL
  ALKALINE PHOSPHATASE: 163.67 u/L
  ASPARTATE AMINOTRANSFERASE: 53 u/L
  BLOOD UREA NITROGEN: 10 mg/dL
  CARBON DIOXIDE: 27.67 mmol/L
  CHLORIDE: 103.67 MEQ/L
  CHOLESTEROL: 107.67 mg/dL
  CREATINE PHOSPHOKINASE: 224.33 u/L
  CREATININE: 0.21 mg/dL
  GLUCOSE: 142.33 mg/dL
  LACTATE DEHYDROGENASE: 128 u/L
  LIPASE: 11.33 u/L
  PHOSPHORUS: 11.57 mg/dL
  POTASSIUM: 6.23 MEQ/L
  SODIUM: 144.1 MEQ/L
  TOTAL BILIRUBIN: 0.13 mg/dL
  TOTAL PROTEIN: 4.43 G/DL
  URIC ACID: 1.57 mg/dL
[3]
  ABSOLUTE BASOPHIL: 0 CELLS/uL
  ABSOLUTE EOSINOPHIL: 0 CELLS/uL
  ABSOLUTE LYMPHOCYTE: 17904 CELLS/uL
  ABSOLUTE MONOCYTE: 540 CELLS/uL
  ABSOLUTE SEGMENTED NEUTROPHIL: 3956 CELLS/uL
  BASOPHIL: 0%
  EOSINOPHIL: 0%
  ERYTHROCYTE COUNT: 3.63 x10E6/uL
  HEMATOCRIT: 21.55%
  HEMOGLOBIN: 8.6 G/DL
  LEUKOCYTE COUNT: 22.4 x10E3/uL
  LYMPHOCYTE: 81%
  MEAN CORPUSCULAR HEMOGLOBIN: 23.8 pg
  MEAN CORPUSCULAR HEMOGLOBIN CONCENTRATION: 40.05 G/DL
  MEAN CORPUSCULAR VOLUME: 59.25 fL
  MONOCYTE: 2.5%
  NEUTROPHIL: 16.5%
  NUCLEATED RED BLOOD CELLS: 2.5 /100WBC
  PLATELET COUNT: 1838 x10E3/uL
  ALANINE AMINOTRANSFERASE: 30 u/L
  ALBUMIN: 2.85 G/DL
  ALKALINE PHOSPHATASE: 259 u/L
  ASPARTATE AMINOTRANSFERASE: 60.5 u/L
  BLOOD UREA NITROGEN: 13 mg/dL
  CARBON DIOXIDE: 23.5 mmol/L
  CHLORIDE: 104 MEQ/L
  CHOLESTEROL: 67 mg/dL
  CREATINE PHOSPHOKINASE: 290 u/L
  CREATININE: 0.21 mg/dL
  GLUCOSE: 136.5 mg/dL
  LACTATE DEHYDROGENASE: 87 u/L
  LIPASE: 9.5 u/L
  PHOSPHORUS: 11.1 mg/dL
  POTASSIUM: 6.99 MEQ/L
  SODIUM: 141.6 MEQ/L
  TOTAL BILIRUBIN: 0.1 mg/dL
  TOTAL PROTEIN: 4.95 G/DL
  URIC ACID: 1.75 mg/dL
